Measurements from paper PMC9295786, “Discovery of potent BET bromodomain 1 stereoselective inhibitors using DNA-encoded chemical library selections” (Proceedings of the National Academy of Sciences of the …, 2022).
Values joined by “and” are separate entries in the source; they are usually repeats but may differ in a detail not shown here. Equal values may be shown once. Read-outs that look alike come from different tables or passages of the source.

Assays:
[1] = Metabolic stability assay in liver microsomes (MLM); assay type: in vitro ADME; settings: mouse liver microsomes 0.5 mg protein/mL, compound 2.0 μM, NADPH 1.0 mM; read-out: MLM t1/2 (half-life)
[2] = Metabolic stability assay in liver microsomes (HLM); assay type: in vitro ADME; settings: human liver microsomes 0.5 mg protein/mL, compound 2.0 μM, NADPH 1.0 mM; read-out: HLM t1/2 (half-life)
[3] = target: T1, BRD4-BD1 (Homo sapiens, UniProt O60885); experiment: AlphaScreen competition assay with biotinylated JQ1; assay type: binding; parameters: the bromodomain 1 (BD1) of BRD4; made in house; host or cells: bacteria (pET15b or pET28b vector); settings: for BRD4-BD1 vs. BRD4-BD2 fold (BRD4-BD1 selectivity): ratio of AlphaScreen IC50 values, NE = not efficient; for IC50: read-out: BRD4-BD1 IC50
[4] = target: T2, BRDT-BD2 (Homo sapiens, UniProt Q58F21); experiment: as above; assay type: binding
T2 construct: two similar tandem bromodomains (BD1 and BD2); made in house; host or cells: bacteria (pET15b or pET28b vector)

[5] = target: T3, BRD4-BD2 (Homo sapiens, UniProt O60885); experiment: as above; assay type: binding; settings: read-out: BRD4-BD2 IC50
T3 construct: two similar tandem bromodomains (BD1 and BD2); made in house; host or cells: bacteria (pET15b or pET28b vector)

[6] = target: BRDT-BD1 (Homo sapiens, UniProt Q58F21); experiment: as above; assay type: binding; parameters: the first bromodomain of BRDT (BRDT-BD1); made in house; host or cells: bacteria (pET15b or pET28b vector); settings: for BRDT-BD1 vs. BRDT-BD2 fold (BRDT-BD1 selectivity): ratio of AlphaScreen IC50 values, NE = not efficient
[7] = system: Kasumi1 cells; experiment: Cell viability by CellTiterGlo; assay type: cell-based; settings: 72 h of treatment, CellTiterGlo, normalized to DMSO, read-out: Viability IC50 Kasumi1
[8] = system: MV4;11 cells; experiment: Cell viability by CellTiterGlo; assay type: cell-based; settings: for IC50: 72 h of treatment, CellTiterGlo, normalized to DMSO, read-out: Viability IC50 MV4;11; for EC50: Table S6, NE = not efficient, read-out: MV4-11 EC50 (viability)
[9] = system: THP1 cells; experiment: Cell viability by CellTiterGlo; assay type: cell-based; settings: 72 h of treatment, CellTiterGlo, normalized to DMSO, read-out: Viability IC50 THP1
[10] = system: MOLM-13 cells; experiment: Cell viability by CellTiterGlo; assay type: cell-based; settings: 72 h of treatment, CellTiterGlo, normalized to DMSO, read-out: Viability IC50 MOLM-13
[11] = system: MOLM-13 cells; experiment: Apoptosis detection (Annexin V) by flow cytometry; assay type: cell-based; settings: 72 h of treatment
[12] = system: MYC expression in MOLM-13 cells; experiment: MYC expression by RT-qPCR; assay type: cell-based; settings: 8 h of treatment
[13] = system: MYC expression in MV4;11 cells; experiment: MYC expression by RT-qPCR; assay type: cell-based; settings: 8 h of treatment
[14] = system: MV4;11 cells; experiment: Cell cycle analysis by flow cytometry; assay type: cell-based; settings: 24 h of treatment at the IC50
[15] = system: MV4;11 cells; experiment: Apoptosis detection (Annexin V) by flow cytometry; assay type: cell-based; settings: 72 h of treatment
[16] = target: TAF1L-BD2; settings: BROMOscan profile; cited from earlier work
[17] = target: TAF1-BD2; settings: BROMOscan profile; cited from earlier work
[18] = target: T4, BRD2-BD1 (Homo sapiens, UniProt P25440); settings: cited from earlier work
T4 construct: two similar tandem bromodomains (BD1 and BD2); purchased Eurofins DiscoverX (Fremont, CA); host or cells: E. coli host derived from the BL21 strain, T7 phage

[19] = target: T1, BRD4-BD1; parameters: the bromodomain 1 (BD1) of BRD4; purchased Eurofins DiscoverX (Fremont, CA); host or cells: E. coli host derived from the BL21 strain, T7 phage; settings: BROMOscan assays; cited from earlier work
[20] = target: T1, BRD4-BD1; parameters: the bromodomain 1 (BD1) of BRD4; purchased Eurofins DiscoverX (Fremont, CA); host or cells: E. coli host derived from the BL21 strain, T7 phage; settings: read-out: IC50 BRD4-BD1 AlphaScreen; cited from earlier work
[21] = system: BD2; parameters: method as in PMID 24391744; settings: cited from earlier work
[22] = AlphaScreen, biotinylated JQ1 10 nM, His-bromodomain 10 nM
[23] = AlphaScreen, biotinylated JQ1 10 nM, His-bromodomain 10 nM, NE = not efficient, read-out: BRDT-BD2 IC50
[24] = AlphaScreen, biotinylated JQ1 10 nM, His-bromodomain 10 nM, NE = not efficient

T4 sequence (P25440 74-180 limits assumed): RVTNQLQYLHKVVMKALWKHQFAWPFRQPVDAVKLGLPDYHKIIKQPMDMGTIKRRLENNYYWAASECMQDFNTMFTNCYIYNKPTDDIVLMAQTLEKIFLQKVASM

SMILES | BRD4-BD1 vs. BRD4-BD2 fold (BRD4-BD1 selectivity) [3] | IC50 [3] [nM] | IC50 ([4]; read-out: BRDT-BD2 IC50) [nM] | IC50 [5] [nM] | IC50 [6] [nM] | BRDT-BD1 vs. BRDT-BD2 fold (BRDT-BD1 selectivity) [6] | also measured
Cc1nnc2n1-c1ccc(Cl)cc1C(c1ccccc1)=NC2 [Alprazolam, reference compound] | – | – | – | – | – | – | half-life at 2 μM [1]: 5.03 h; half-life at 2 μM [2]: 14.4 h
CNC(=O)C(CC1CCN(C(=O)Cc2ccc3[nH]c(=O)cc(C)c3c2)CC1)NC(=O)c1ccc(-c2ccc(C)cc2C)cn1 (centres unmarked) [CDD-724] | 4035 fold | 8.5 | 12800 | 34300 | 5.7 | 2,246 fold and > 2,000 fold | –
Cc1cc(=O)[nH]c2ccc(CC(=O)N3CCC(CCNC(=O)c4ccccn4)CC3)cc12 [CDD-767] | 5,449 fold | 13.8 | 6800 | 75200 | 35.4 | 192 fold | –
Cc1cc(=O)[nH]c2ccc(CC(=O)N3CCN(CCNC(=O)c4ccccn4)CC3)cc12 [CDD-778] | – | – | – | – | – | 13.8 fold | IC50 [3, 22]: 1300 nM; IC50 [4, 23]: 71800 nM; IC50 [6, 22]: 5200 nM
Cc1cc(=O)[nH]c2ccc(CC(=O)N3CCC(CCNC(=O)c4ccccc4)CC3)cc12 [CDD-779] | – | 47.9 | 10400 | – | 148 | 70 fold | –
CNC(=O)C(CC1CCN(C(=O)Cc2ccc3[nH]c(=O)cc(C)c3c2)CC1)NC(=O)c1ccccn1 (centres unmarked) [CDD-784] | 2,078 fold | – | – | – | – | 960 fold | IC50 [3, 22]: 15.7 nM; IC50 [4, 23]: 19400 nM; IC50 [5, 24]: 32600 nM; IC50 [6, 22]: 20.2 nM
CNC(=O)[C@H](CC1CCN(C(=O)Cc2ccc3[nH]c(=O)cc(C)c3c2)CC1)NC(=O)c1ccc(-c2ccc(C)cc2C)cn1 [CDD-786] | 275 fold | 22.2 | 6300 | 6100 | 96.6 | 65 fold | IC50 ([7]; Homo sapiens, Kasumi 1): 262 nM; IC50 ([8]; Homo sapiens, MV4-11): 853 nM; IC50 ([9]; Homo sapiens, THP-1): 1200 nM; IC50 ([10]; Homo sapiens, MOLM-13): 729 nM
Cc1ccc(-c2ccc(C(=O)NCCC3CCN(C(=O)Cc4ccc5[nH]c(=O)cc(C)c5c4)CC3)nc2)c(C)c1 [CDD-813] | 312 fold | 27.8 | 67800 | 8690 | 33.7 | 2012 fold | –
Cc1cc(=O)[nH]c2ccc(CC(=O)N3CCC(CCNC(=O)c4nccc5ccccc45)CC3)cc12 [CDD-853] | – | 341 | – | – | 638 | – | –
Cc1cc(=O)[nH]c2ccc(CC(=O)N3CCC(CCNC(=O)c4cc5ccccc5cn4)CC3)cc12 [CDD-854] | – | – | – | – | – | – | IC50 [3, 22]: 119 nM; IC50 [6, 22]: 116 nM
Cc1cc(=O)[nH]c2ccc(CC(=O)N3CCC(CCNC(=O)c4ccc5ccccc5n4)CC3)cc12 [CDD-855] | – | – | – | – | – | – | IC50 [3, 22]: 122 nM; IC50 [6, 22]: 81.3 nM
Cc1ccc(-c2ccc(C(=O)NC(C)CC3CCN(C(=O)Cc4ccc5[nH]c(=O)cc(C)c5c4)CC3)nc2)c(C)c1 (centres unmarked) [CDD-906] | 381 fold | – | – | – | – | 756 fold | IC50 [3, 22]: 52.4 nM; IC50 [4, 23]: 23400 nM; IC50 [5, 24]: 20000 nM; fold loss of selectivity on BRDT-BD1 ([6]; AlphaScreen): 6.5 fold; IC50 [6, 22]: 31 nM
CNC(=O)[C@@H](CC1CCN(C(=O)Cc2ccc3[nH]c(=O)cc(C)c3c2)CC1)NC(=O)c1ccc(-c2ccccc2)cn1 [CDD-956] | – | – | – | – | – | – | half-life at 2 μM [1]: 0.583 h; Induction of apoptosis (Annexin V+ cells), MOLM-13 [11]: apoptosis; MYC expression, MOLM-13 [12]: suppressed; MYC expression, MV4;11 [13]: suppressed; Effect on the cell cycle, MV4;11 [14]: G1 arrest; Induction of apoptosis (Annexin V+ cells), MV4;11 [15]: apoptosis
CNC(=O)[C@@H](CC1CCN(C(=O)Cc2ccc3[nH]c(=O)cc(C)c3c2)CC1)NC(=O)c1ccc(-c2ccc(Cl)cc2)cn1 [CDD-981] | 1,553 fold | 12.8 | 33800 | 19900 | 5.1 | 6,633 fold | EC50 ([8]; Homo sapiens, MV4-11): 58 nM
CNC(=O)[C@@H](CC1CCN(C(=O)Cc2ccc3[nH]c(=O)cc(C)c3c2)CC1)NC(=O)c1ccc(-c2ccc(Cl)c(F)c2)cn1 [CDD-982] | 1,423 fold | 9.8 | 22600 | 14000 | 4.7 | 4,799 fold | EC50 ([8]; Homo sapiens, MV4-11): 100 nM
CNC(=O)C(CC1CCN(C(=O)Cc2ccc3[nH]c(=O)ccc3c2)CC1)NC(=O)c1ccc(-c2ccccc2)cn1 (centres unmarked) [CDD-986] | 2,352 fold | – | – | – | – | 3,875 fold | EC50 [8]: 143 nM; fold loss of selectivity over BRD4-BD2 ([3]; AlphaScreen): 1.6 fold; IC50 [4, 23]: 20900 nM; IC50 [5, 24]: 16700 nM
Cc1cc2c(-c3ccco3)cnc(N[C@@H]3CCN(C)C[C@H]3C(=O)NC3CCCCC3)c2[nH]c1=O [GSK789] | – | – | – | – | – | – | Kd [16]: 398 nM; Kd [17]: 50 nM
Cc1sc2c(c1C)C(c1ccc(Cl)cc1)=N[C@@H](CC(=O)OC(C)(C)C)c1nnc(C)n1-2 [JQ1, reference compound] | – | – | – | – | – | – | IC50 [7]: 29.8 nM; IC50 [8]: 61.9 nM; IC50 [9]: 130 nM; IC50 [10]: 130 nM
COc1ccccc1S(=O)(=O)Nc1ccc2c3c(cc(-n4cnc(C)c4)nc13)C(=O)N2C [LT052] | – | – | – | – | – | – | IC50 [18]: 9000 nM; selectivity for BRD4-BD1 over BRD4-BD2 [19]: 138 fold; IC50 [20]: 88 nM
COc1cc(OC)c2c(=O)[nH]c(-c3cc(C)c(OCCO)c(C)c3)nc2c1 [RVX-208] | – | – | – | – | – | – | IC50 ([4]; AlphaScreen, read-out: IC50 in our BRDT-BD2 AlphaScreen assay): 2000 nM; selectivity over BD1 domains ([21]; BD2 over BD1): ~10 fold; BD2 potency [21]: > 100 nM
